Reference: US20250026721A1, “COMPOUNDS AND METHODS FOR MODULATING RAS-PI3K” (Vividion Therapeutics, Inc., priority 2023, published 2025)

Key:
PIK3CA = molecular target: T1, PIK3CA (Homo sapiens, UniProt P42336); test: In vitro ELISA target engagement assay for PIK3CA in Jurkat cellular lysate (competition with PIK3CA Biotin Probe); format: binding; settings: 1 hour at rt, then 500 nM PIK3CA Biotin Probe, read-out: Elisa Target Engagement Assay (TE50)
T1 construct: endogenous in cells; host or cells: Jurkat cell lysate
T1 sequence (P42336 whole entry): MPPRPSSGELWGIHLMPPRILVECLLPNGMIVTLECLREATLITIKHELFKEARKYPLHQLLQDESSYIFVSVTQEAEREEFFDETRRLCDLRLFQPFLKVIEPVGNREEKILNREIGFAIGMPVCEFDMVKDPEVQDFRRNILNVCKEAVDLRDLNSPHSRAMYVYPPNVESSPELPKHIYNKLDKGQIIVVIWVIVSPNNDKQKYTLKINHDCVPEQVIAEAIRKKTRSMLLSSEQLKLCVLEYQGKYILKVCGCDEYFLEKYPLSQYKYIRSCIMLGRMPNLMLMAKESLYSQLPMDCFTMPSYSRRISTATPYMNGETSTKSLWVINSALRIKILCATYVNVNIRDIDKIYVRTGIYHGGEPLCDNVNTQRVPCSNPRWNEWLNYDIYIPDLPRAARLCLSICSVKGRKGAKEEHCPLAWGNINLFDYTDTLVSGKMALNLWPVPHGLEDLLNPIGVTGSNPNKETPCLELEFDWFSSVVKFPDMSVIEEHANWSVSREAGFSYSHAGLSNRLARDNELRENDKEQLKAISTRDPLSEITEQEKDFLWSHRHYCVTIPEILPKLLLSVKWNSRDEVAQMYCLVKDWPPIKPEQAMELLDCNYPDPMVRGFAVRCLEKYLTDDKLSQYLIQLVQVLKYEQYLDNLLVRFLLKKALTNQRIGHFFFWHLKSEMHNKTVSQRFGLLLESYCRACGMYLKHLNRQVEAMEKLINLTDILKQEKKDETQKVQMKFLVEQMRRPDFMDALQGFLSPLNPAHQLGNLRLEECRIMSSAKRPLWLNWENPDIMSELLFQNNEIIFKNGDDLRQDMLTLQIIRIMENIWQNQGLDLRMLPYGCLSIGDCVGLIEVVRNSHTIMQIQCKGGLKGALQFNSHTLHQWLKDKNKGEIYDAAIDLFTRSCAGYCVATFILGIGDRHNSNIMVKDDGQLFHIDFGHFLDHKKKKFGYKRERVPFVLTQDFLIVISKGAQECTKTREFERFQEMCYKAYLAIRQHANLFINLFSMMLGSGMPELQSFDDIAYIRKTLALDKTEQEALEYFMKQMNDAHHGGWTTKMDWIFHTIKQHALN
T1 sequence (P27986 whole entry partner): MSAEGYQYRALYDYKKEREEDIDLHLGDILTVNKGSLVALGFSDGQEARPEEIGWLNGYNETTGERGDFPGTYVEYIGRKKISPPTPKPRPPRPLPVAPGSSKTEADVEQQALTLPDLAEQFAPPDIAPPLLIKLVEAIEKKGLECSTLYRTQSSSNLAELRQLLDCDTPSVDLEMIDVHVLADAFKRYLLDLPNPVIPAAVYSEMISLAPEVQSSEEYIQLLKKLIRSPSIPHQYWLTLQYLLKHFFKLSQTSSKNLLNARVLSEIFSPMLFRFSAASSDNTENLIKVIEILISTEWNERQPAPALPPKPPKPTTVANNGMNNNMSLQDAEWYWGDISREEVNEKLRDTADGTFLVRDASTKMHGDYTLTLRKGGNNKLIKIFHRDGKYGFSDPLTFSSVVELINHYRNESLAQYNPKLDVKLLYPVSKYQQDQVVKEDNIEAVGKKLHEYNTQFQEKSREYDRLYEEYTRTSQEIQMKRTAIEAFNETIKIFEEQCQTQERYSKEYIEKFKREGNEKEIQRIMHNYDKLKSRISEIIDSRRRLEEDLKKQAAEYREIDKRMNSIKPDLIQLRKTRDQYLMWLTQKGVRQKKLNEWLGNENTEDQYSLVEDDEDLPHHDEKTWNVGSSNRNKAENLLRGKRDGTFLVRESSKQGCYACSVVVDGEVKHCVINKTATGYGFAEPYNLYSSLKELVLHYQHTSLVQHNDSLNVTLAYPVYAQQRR
Summary of the method: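 Competition format in Jurkat lysate: compound (serial dilutions, top 200 μM) for 1 h at rt, then 500 nM final biotinylated PIK3CA probe for 1 h at rt. Sandwich ELISA with capture antibody and Neutravidin-HRP luminescence read-out measured probe-labelled PIK3CA, giving TE50.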

PIK3CA_C242 = molecular target: T2, PIK3CA_C242 (Homo sapiens, UniProt P42336); test: Proteomic TE50 (IA-DTB / TMT mass spectrometry) in Jurkat cell lysate; format: binding; settings: 1 hour at rt, 7-point dose response
T2 construct: endogenous in cells; host or cells: Jurkat cell lysate
T2 sequence (P42336 whole entry): as the sequence (P42336 whole entry) above
T2 sequence (P27986 whole entry partner): as the sequence (P27986 whole entry partner) above
Method: Example 4. Proteomic TE50 In vitro TE50 values for PIK3CA_C242 were obtained by treating 500 μg of cell lysate generated from Jurkat cells with DMSO or compound for 1 hour at rt followed by the addition of 200 μM desthiobiotin polyethyleneoxide iodoacetamide (IA-DTB) in DMSO for one hour at rt. Compounds were serially diluted 1:5 for a total of 7 points in order to generate dose response curves. Samples were then precipitated by the addition of 8× ice cold acetone and incubated at -80° C. for two hours. Protein was then pelleted by centrifugation (4,200 RPM, 45 min, 4° C.). The pelleted material was resuspended in 9M urea, 50 mM ammonium bicarbonate and proteins were reduced and alkylated by the addition of DTT and iodoacetamide (10 and 30 mM, respectively). Following reduction and alkylation, samples were exchanged into 2M urea (Zeba spin desalting plates, Thermo Fisher) and digested with Trypsin. IA-DTB labeled peptides were isolated with streptavidin agarose resin. Enriched peptides were eluted by the addition of 50% acetonitrile (ACN) 0.1% formic acid (FA) and dried in a SpeedVac vacuum concentrator. […] Reactions were quenched by the addition of 6.5 μL of 5% hydroxylamine. Samples were then combined and desalted on a Evolute express ABN plate (Biotage, 600-0010-PX01). Targeted TMT measurements were collected using an Orbitrap Lumos Tribrid Mass Spectrometer (Thermo Scientific) coupled to an UltiMate 3000 Series Rapid Separation LC system and autosampler (Thermo Scientific Dionex). Peptides were eluted onto a custom C18 capillary analytical column (75-μm inner diameter fused silica, packed with Acclaim PepMap C18 resin; Thermo Scientific) using an Acclaim PepMap 100 (Thermo 164535) loading column, and separated at a flow rate of […]. Data were acquired using a specific MS3-based TMT method targeting the peptide containing […], +2 charge state) where MS2 peptide fragmentation is triggered upon detection of the peptide precursor ion. Subsequent MS3 analysis was then performed using pre-selected peptide fragment ions that were isolated for fragmentation using synchronous precursor selection. RAW files were converted to MZXML format and searched with the SEQUEST algorithm using the […] software package. TMT quantitation was performed with a filter requiring at least ten summed signal-to-noise (S/N) for control channels. TE50 values were calculated from 7-point dose response curves created using the reporter ion S/N for each channel.

Row | SMILES | IC50 (PIK3CA) [µM] | IC50 (PIK3CA_C242) [µM]
1 | COc1cccc(-c2cc(N(C)C)ccc2S(=O)(=O)N2CCC(F)(C(=O)N[C@@H](C)/C=C\S(C)(=O)=O)CC2)c1 (racemic) [Compound 86, 1-[4-(Dimethylamino)-2-(3-methoxyphenyl)phenyl]sulfonyl-4-fluoro-N-[rac-(Z, 1S)-1-methyl-3-methylsulfonyl-allyl]piperidine-4-carboxamide] | 0.06 | 0.107
2 | COc1cccc(-c2cc(Cl)ccc2S(=O)(=O)N2CCC(F)(C(=O)N[C@@H](C)/C=C\S(C)(=O)=O)CC2)c1 [Compound 1, (S,Z)-1-((5-chloro-3′-methoxy-[1,1′-biphenyl]-2-yl)sulfonyl)-4-fluoro-N-(4-(methylsulfonyl)but-3-en-2-yl)piperidine-4-carboxamide] | 0.11 | 0.246
3 | C[C@@H](/C=C\S(C)(=O)=O)NC(=O)C1(F)CCN(S(=O)(=O)c2ccc(Cl)cc2-c2cccc(Cl)c2)CC1 [Compound 3, (S,Z)-1-((3′,5-dichloro-[1,1′-biphenyl]-2-yl)sulfonyl)-4-fluoro-N-(4-(methylsulfonyl)but-3-en-2-yl)piperidine-4-carboxamide] | 0.09 | 0.11
4 | COc1ccc(S(=O)(=O)N2CCC(F)(C(=O)N[C@@H](C)/C=C\S(C)(=O)=O)CC2)c(-c2ccccc2)c1 [Compound 4, (S,Z)-4-fluoro-1-((5-methoxy-[1,1′-biphenyl]-2-yl)sulfonyl)-N-(4-(methylsulfonyl)but-3-en-2-yl)piperidine-4-carboxamide] | 0.14 | 0.206
5 | COc1cccc(-c2cc(OC)ccc2S(=O)(=O)N2CCC(F)(C(=O)N[C@@H](C)/C=C\S(C)(=O)=O)CC2)c1 [Compound 5, (S,Z)-1-((3′,5-dimethoxy-[1,1′-biphenyl]-2-yl)sulfonyl)-4-fluoro-N-(4-(methylsulfonyl)but-3-en-2-yl)piperidine-4-carboxamide] | 0.2 | 0.187
6 | C[C@@H](/C=C\S(C)(=O)=O)NC(=O)C1(F)CCN(S(=O)(=O)c2ccc(Cl)cc2-c2ccccc2Cl)CC1 [Compound 6, (S,Z)-1-((2′,5-dichloro-[1,1′-biphenyl]-2-yl)sulfonyl)-4-fluoro-N-(4-(methylsulfonyl)but-3-en-2-yl)piperidine-4-carboxamide] | 0.05 | 0.026
7 | COc1ccc(S(=O)(=O)N2CCC(F)(C(=O)N[C@@H](C)/C=C\S(C)(=O)=O)CC2)c(-c2cccc(Cl)c2)c1 [Compound 7, (S,Z)-1-((3′-chloro-5-methoxy-[1,1′-biphenyl]-2-yl)sulfonyl)-4-fluoro-N-(4-(methylsulfonyl)but-3-en-2-yl)piperidine-4-carboxamide] | 0.09 | 0.107
8 | C[C@@H](/C=C\S(C)(=O)=O)NC(=O)C1(F)CCN(S(=O)(=O)c2ccc(Cl)cc2-c2cccc(C#N)c2)CC1 [Compound 8, (S,Z)-1-((5-chloro-3′-cyano-[1,1′-biphenyl]-2-yl)sulfonyl)-4-fluoro-N-(4-(methylsulfonyl)but-3-en-2-yl)piperidine-4-carboxamide] | 0.69 | 1.35
9 | C[C@H](/C=C\S(C)(=O)=O)NC(=O)C1(F)CCN(S(=O)(=O)c2ccc(N3CCN(C(=O)OC(C)(C)C)CC3)cc2-c2ccccc2Cl)CC1 [Compound 118, tert-butyl (R,Z)-4-(2′-chloro-6-((4-fluoro-4-((4-(methylsulfonyl)but-3-en-2-yl)carbamoyl)piperidin-1-yl)sulfonyl)-[1,1′-biphenyl]-3-yl)piperazine-1-carboxylate] |  | 0.43
10 | Cc1ccccc1-c1cc(N2CCCC2)ccc1S(=O)(=O)N1CCC(F)(C(=O)N[C@H](C)/C=C\S(C)(=O)=O)CC1 [Compound 120, (R,Z)-4-fluoro-1-((2′-methyl-5-(pyrrolidin-1-yl)-[1,1′-biphenyl]-2-yl)sulfonyl)-N-(4-(methylsulfonyl)but-3-en-2-yl)piperidine-4-carboxamide] |  | 0.25
11 | CC#Cc1ccc(S(=O)(=O)N2CCC(F)(C(=O)N[C@H](C)/C=C\S(C)(=O)=O)CC2)c(-c2ccccc2Cl)c1 [Compound 131, (R,Z)-1-((2′-chloro-5-(prop-1-yn-1-yl)-[1,1′-biphenyl]-2-yl)sulfonyl)-4-fluoro-N-(4-(methylsulfonyl)but-3-en-2-yl)piperidine-4-carboxamide] |  | 0.209
12 | COc1cc(-c2ccccc2Cl)c(S(=O)(=O)N2CCC(F)(C(=O)NC/C=C/S(C)(=O)=O)CC2)cn1 [Compound 188, (E)-1-((4-(2-chlorophenyl)-6-methoxypyridin-3-yl)sulfonyl)-4-fluoro-N-(3-(methylsulfonyl)allyl)piperidine-4-carboxamide] |  | 0.189
13 | COc1cc(-c2ccccc2C)c(S(=O)(=O)N2CCC(F)(C(=O)NC/C=C/S(C)(=O)=O)CC2)cn1 [Compound 189, (E)-4-fluoro-1-((6-methoxy-4-(o-tolyl)pyridin-3-yl)sulfonyl)-N-(3-(methylsulfonyl)allyl)piperidine-4-carboxamide] |  | 0.263
14 | COc1cc(-c2ccccc2)c(S(=O)(=O)N2CCC(F)(C(=O)NC/C=C/S(C)(=O)=O)CC2)cn1 [Compound 191, (E)-4-fluoro-1-((6-methoxy-4-phenylpyridin-3-yl)sulfonyl)-N-(3-(methylsulfonyl)allyl)piperidine-4-carboxamide] |  | 0.95
15 | COc1cc(-c2ccccc2Cl)c(S(=O)(=O)N2CCC(F)(C(=O)NC/C=C\C#N)CC2)cn1 [Compound 194, (Z)-1-((4-(2-chlorophenyl)-6-methoxypyridin-3-yl)sulfonyl)-N-(3-cyanoallyl)-4-fluoropiperidine-4-carboxamide] |  | 0.27
16 | COc1cccc(-c2cc(Cl)cnc2S(=O)(=O)N2CCC(F)(C(=O)N[C@@H](C)/C=C\S(C)(=O)=O)CC2)c1 [Compound 200, (S,Z)-1-((5-chloro-3-(3-methoxyphenyl)pyridin-2-yl)sulfonyl)-4-fluoro-N-(4-(methylsulfonyl)but-3-en-2-yl)piperidine-4-carboxamide] |  | 0.788
17 | COc1cccc(-c2ccccc2S(=O)(=O)N2CCC(F)(C(=O)NC/C=C/S(=O)(=O)C3CCN(C)CC3)CC2)c1 [Compound 228, (E)-4-fluoro-1-((3′-methoxy-[1,1′-biphenyl]-2-yl)sulfonyl)-N-(3-((1-methylpiperidin-4-yl)sulfonyl)allyl)piperidine-4-carboxamide] |  | 0.69
18 | COc1ccc(S(=O)(=O)N2CCC(F)(C(=O)N3CC(/C=C\S(C)(=O)=O)C3)CC2)c(-c2ccccc2Cl)c1 [Compound 230, (Z)-(1-((2′-chloro-5-methoxy-[1,1′-biphenyl]-2-yl)sulfonyl)-4-fluoropiperidin-4-yl)(3-(2-(methylsulfonyl)vinyl)azetidin-1-yl)methanone] |  | 0.14
19 | C[C@@H](/C=C\S(C)(=O)=O)NC(=O)C1(F)CCN(S(=O)(=O)c2ccc(Cl)cc2-c2cccc(Oc3ccccc3)c2)CC1 [Compound 267, (S,Z)-1-((5-chloro-3′-phenoxy-[1,1′-biphenyl]-2-yl)sulfonyl)-4-fluoro-N-(4-(methylsulfonyl)but-3-en-2-yl)piperidine-4-carboxamide] |  | 0.703
20 | C[C@@H](/C=C\S(C)(=O)=O)NC(=O)C1(F)CCN(S(=O)(=O)c2ccc(Cl)cc2-c2cccc(OCc3ccccc3)c2)CC1 [Compound 268, (S,Z)-1-((3′-(benzyloxy)-5-chloro-[1,1′-biphenyl]-2-yl)sulfonyl)-4-fluoro-N-(4-(methylsulfonyl)but-3-en-2-yl)piperidine-4-carboxamide] |  | 0.356
21 | COc1cccc(-c2cc(Cl)ncc2S(=O)(=O)N2CCC(F)(C(=O)N[C@@H](C)/C=C\S(C)(=O)=O)CC2)c1 [Compound 270, (S,Z)-1-((6-chloro-4-(3-methoxyphenyl)pyridin-3-yl)sulfonyl)-4-fluoro-N-(4-(methylsulfonyl)but-3-en-2-yl)piperidine-4-carboxamide] |  | 0.55
22 | C[C@H](/C=C\S(C)(=O)=O)NC(=O)C1(F)CCN(S(=O)(=O)c2cnc(O)cc2-c2ccccc2Cl)CC1 [Compound 276, (R,Z)-1-((4-(2-chlorophenyl)-6-hydroxypyridin-3-yl)sulfonyl)-4-fluoro-N-(4-(methylsulfonyl)but-3-en-2-yl)piperidine-4-carboxamide] |  | 0.57
23 | N#C/C=C/CNC(=O)C1(F)CCN(S(=O)(=O)c2cnc(Br)cc2-c2ccccc2Cl)CC1 [Compound 278, (E)-1-((6-bromo-4-(2-chlorophenyl)pyridin-3-yl)sulfonyl)-N-(3-cyanoallyl)-4-fluoropiperidine-4-carboxamide] |  | 0.24
